# Results from patent US12202844B2, “MAP4K1 inhibitors” (Blueprint Medicines Corporation, priority 2021, dated 2025).
# Biological target: T1, MAP4K1 (HPK1) (Homo sapiens, UniProt Q92918)
# T1 construct: purchased Invitrogen
# Experiment: Inhibition of MAP4K1 biochemical enzymatic activity (EZReader 2 electrophoretic mobility shift)
# Details: HPK1 (Invitrogen), S6K2tide 1.5 μM, 120 min; ATP 26 μM or 1000 μM (not given)
# Description: MAP4K1 (HPK1) and relevant off-target enzymatic activity was monitored using the Perkin Elmer electrophoretic mobility shift technology platform—the EZReader 2. […] Within the linear, steady-state phase of the kinase enzymatic reaction, the mixed pool of phosphorylated (product) and non-phosphorylated (substrate) peptides was passed through the microfluidic system of the PerkinElmer EZ Reader 2, under an applied electric potential difference. The presence of the phosphate group on the product peptide provided a difference in mass and charge between that of the substrate peptide, resulting in a separation of the substrate and product pools in the sample (Perrin et al. 2010). As the product and substrate peptide mixture passes the lasers within the instrument, these pools are detected (λex=488 nm, λem=568 nm) and resolved as separate peaks. The ratio between these peaks reflects the activity of the compound at that concentration, in that well, under those conditions.
# Inhibitors were dissolved in 100% DMSO at a stock concentration of 10 mM. A 100×, 10-point, 4-fold serial dilution of each inhibitor was created in 100% DMSO either manually or on a Hamilton STAR liquid handler, starting at a relevant concentration, usually 1 mM. A volume of 0.130 μL of each concentration was transferred to the relevant wells of a 384-well plate (Greiner 781 201) in duplicate using a TTPLabtech Mosquito nano-litre dispenser. Using a Multidrop Combi, the remaining constituents of the kinase reaction were added to the 130 nL of dosed compound as follows (see table below for final reaction details):
# Enzyme activity assays at the ^APPKM for ATP or 1 mM ATP: In each well of a 384-well plate, 0.1-15 nM of untreated enzyme was incubated in a total of 13 μL of buffer (100 mM HEPES pH 7.5, 0.015% Brij 35, 10 mM MgCl2, 1 mM DTT) with 1.5 μM fluorescent peptid and 20-1000 μM ATP, at 25° C., for 60-180 minutes in the presence or absence of a dosed concentration series of compound (1% DMSO final concentration). The kinase reactions were stopped by the addition of 70 μl of Stop buffer (100 mM HEPES pH 7.5, 0.015% Brij 35, 35 mM EDTA and 0.2% of Coating Reagent 3 (Caliper Lifesciences)). The plates were read on a Caliper EZReader 2 as described above.
# T1 sequence (Q92918 whole entry): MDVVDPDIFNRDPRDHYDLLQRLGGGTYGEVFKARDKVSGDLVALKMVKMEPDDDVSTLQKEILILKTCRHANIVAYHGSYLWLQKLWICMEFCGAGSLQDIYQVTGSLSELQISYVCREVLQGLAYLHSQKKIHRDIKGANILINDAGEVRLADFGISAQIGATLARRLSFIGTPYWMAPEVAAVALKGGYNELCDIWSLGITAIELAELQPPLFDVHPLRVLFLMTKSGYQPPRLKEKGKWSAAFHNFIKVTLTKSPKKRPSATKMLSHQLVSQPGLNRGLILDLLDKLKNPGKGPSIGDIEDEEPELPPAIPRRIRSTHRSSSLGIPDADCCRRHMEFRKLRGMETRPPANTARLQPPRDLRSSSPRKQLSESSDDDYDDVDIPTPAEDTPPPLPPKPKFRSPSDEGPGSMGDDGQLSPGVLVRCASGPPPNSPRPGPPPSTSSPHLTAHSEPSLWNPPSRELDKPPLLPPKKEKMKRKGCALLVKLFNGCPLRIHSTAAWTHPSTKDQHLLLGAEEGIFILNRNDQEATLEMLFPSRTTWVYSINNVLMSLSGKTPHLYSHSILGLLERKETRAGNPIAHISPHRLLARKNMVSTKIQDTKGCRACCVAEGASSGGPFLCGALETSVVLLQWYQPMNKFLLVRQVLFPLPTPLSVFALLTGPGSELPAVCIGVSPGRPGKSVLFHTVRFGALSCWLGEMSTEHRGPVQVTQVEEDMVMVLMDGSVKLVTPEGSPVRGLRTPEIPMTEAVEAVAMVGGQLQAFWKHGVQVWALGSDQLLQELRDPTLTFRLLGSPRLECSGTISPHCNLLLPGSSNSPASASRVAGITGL
row,Structure (SMILES),IC50
1,"C[C@H](C[C@H]1CCCS1(=O)=O)Oc1ncc(C(C)(C)N)c2cc(Nc3ccc4c(n3)[C@@H](C)C(C)(C)OC4=O)ncc12 (single isomer, unassigned) [Compound 161]",940 pM
2,"CC[C@@](C)(N)c1cnc(O[C@@H](C)CC(C)(C)S(C)(=O)=O)c2cnc(Nc3ccc4c(n3)C(C)(C)[C@H](C)OC4=O)cc12 (single isomer, unassigned) [Compound 191]",3670 pM
3,"C[C@@H]1OC(=O)c2ccc(Nc3cc4c(C(C)(C)N)cnc(O[C@@H](C)C[C@@H]5CCCS5(=O)=O)c4cn3)nc2[C@H]1C (single isomer, unassigned) [Compound 157]",1570 pM
4,"C[C@@H]1[C@@H](Oc2ncc(C(C)(C)N)c3cc(Nc4ccc5c(n4)[C@@H](C)[C@H](C)OC5=O)ncc23)C[C@H]1S(C)(=O)=O (single isomer, unassigned) [Compound 30]",790 pM
5,"CCS(=O)(=O)C[C@H]1C[C@H](Oc2ncc(C(C)(C)N)c3cc(Nc4ccc5c(n4)[C@@H](C)C(C)(C)OC5=O)ncc23)C1 (single isomer, unassigned) [Compound 111]",120 pM
6,COC[C@@](C)(N)c1cnc(O[C@H]2C[C@H](CS(C)(=O)=O)C2)c2cnc(Nc3ccc4c(n3)[C@@H](C)[C@H](C)OC4=O)cc12 [Compound 120],520 pM
7,C[C@@H]1c2nc(Nc3cc4c(C(C)(C)N)cnc(O[C@H]5C[C@H](S(=O)(=O)N(C)C)C5)c4cn3)ccc2C(=O)OC1(C)C [Compound 119],220 pM
8,CC(C)S(=O)(=O)[C@H]1C[C@@H](Oc2ncc(C(C)(C)N)c3cc(Nc4ccc5c(n4)[C@@H](C)C(C)(C)OC5=O)ncc23)C1 [Compound 116],90 pM
9,"CC[C@@H](CCS(C)(=O)=O)Oc1ncc([C@](C)(N)CC)c2cc(Nc3ccc4c(n3)[C@@H](C)[C@H](C)OC4=O)ncc12 (single isomer, unassigned) [Compound 84]",740 pM
10,"C[C@H](C[C@@H](C)S(C)(=O)=O)Oc1ncc([C@@](C)(N)C2CC2)c2cc(Nc3ccc4c(n3)[C@@H](C)C(C)(C)OC4=O)ncc12 (single isomer, unassigned) [Compound 137]",210 pM
11,COC[C@@](C)(N)c1cnc(OCCCS(C)(=O)=O)c2cnc(Nc3ccc4c(n3)[C@@H](C)[C@H](C)OC4=O)cc12 [Compound 57],530 pM
12,"C[C@@H]1c2nc(Nc3cc4c(C(C)(C)N)cnc(OC[C@H]5CCS(=O)(=O)C5)c4cn3)ccc2C(=O)OC1(C)C (single isomer, unassigned) [Compound 36]",540 pM
13,CC[C@@](C)(N)c1cnc(OCCCS(C)(=O)=O)c2cnc(Nc3ccc4c(n3)[C@@H](C)[C@H](C)OC4=O)cc12 [Compound 20],130 pM
14,"CC[C@@](C)(N)c1cnc(OCCCS(C)(=O)=O)c2cnc(Nc3ccc4c(n3)C3(CC3)[C@H](C)OC4=O)cc12 (single isomer, unassigned) [Compound 43]",120 pM
15,"C[C@@H]1OC(=O)c2ccc(Nc3cc4c(C(C)(C)N)cnc(O[C@@H](C)CCS(C)(=O)=O)c4cn3)nc2[C@H]1C (single isomer, unassigned) [Compound 19]",900 pM
16,COC[C@@](C)(N)c1cnc(O[C@H]2C[C@@H](CS(C)(=O)=O)C2)c2cnc(Nc3ccc4c(n3)[C@@H](C)[C@H](C)OC4=O)cc12 [Compound 121],590 pM
17,C[C@@H]1c2nc(Nc3cc4c(C(C)(C)N)cnc(OCCCS(C)(=O)=O)c4cn3)ccc2C(=O)OC1(C)C [Compound 17],150 pM
18,"CC[C@@](C)(N)c1cnc(O[C@H](C)CC(C)(C)[S@@](C)(=N)=O)c2cnc(Nc3ccc4c(n3)C(C)(C)[C@@H](C)OC4=O)cc12 (single isomer, unassigned) [Compound 187]",2200 pM

row,Structure (SMILES),IC50
1,"CC[C@@](C)(N)c1cnc(O[C@H](C)CC[S@+](C)[O-])c2cnc(Nc3ccc4c(n3)[C@@H](C)[C@H](C)OC4=O)cc12 (single isomer, unassigned) [Compound 167]",190 pM
2,"CC[C@@](C)(N)c1cnc(OCCCS(C)(=O)=O)c2cnc(Nc3ccc4c(n3)C(C)(C)[C@H](C)OC4=O)cc12 (single isomer, unassigned) [Compound 56]",210 pM
3,"C[C@H](C[C@H]1CCCS1(=O)=O)Oc1ncc(C(C)(C)N)c2cc(Nc3ccc4c(n3)[C@@H](C)C(C)(C)OC4=O)ncc12 (single isomer, unassigned) [Compound 160]",1610 pM
4,CC[C@@](C)(N)c1cnc(O[C@H]2C[C@@H](S(C)(=O)=O)C2)c2cnc(Nc3ccc4c(n3)C(C)(C)COC4=O)cc12 [Compound 33],210 pM
5,CC[C@@](C)(N)c1cnc(O[C@H]2C[C@@H](CS(C)(=O)=O)C2)c2cnc(Nc3ccc4c(n3)[C@@H](C)[C@H](C)OC4=O)cc12 [Compound 73],240 pM
6,"CC[C@@](C)(N)c1cnc(O[C@@H](C)CCS(C)(=O)=O)c2cnc(Nc3ccc4c(n3)C3(CC3)[C@@H](C)OC4=O)cc12 (single isomer, unassigned) [Compound 147]",460 pM
7,COC[C@@](C)(N)c1cnc(OCCCS(C)(=O)=O)c2cnc(Nc3ccc4c(n3)[C@@H](C)C(C)(C)OC4=O)cc12 (stereo in doubt) [Compound 179],490 pM
8,CC[C@@](C)(N)c1cnc(OCCCS(C)(=O)=O)c2cnc(Nc3ccc4c(n3)C(C)(C)COC4=O)cc12 [Compound 22],300 pM
9,"CCC[C@@](C)(N)c1cnc(O[C@H](C)C[C@@H](C)S(C)(=O)=O)c2cnc(Nc3ccc4c(n3)[C@@H](C)[C@H](C)OC4=O)cc12 (single isomer, unassigned) [Compound 125]",180 pM
10,"CCS(=O)(=O)[C@H]1C[C@@H](Oc2ncc([C@H](N)C3CC3)c3cc(Nc4ccc5c(n4)[C@@H](C)C(C)(C)OC5=O)ncc23)C1 (single isomer, unassigned) [Compound 101]",480 pM
11,"CC[C@@](C)(N)c1cnc(O[C@H](C)C[C@@H](C)[S@@](C)(=N)=O)c2cnc(Nc3ccc4c(n3)C3(CC3)[C@@H](C)OC4=O)cc12 (single isomer, unassigned) [Compound 180]",3030 pM
12,"C[C@@H]1OC(=O)c2ccc(Nc3cc4c(C(C)(C)N)cnc(O[C@H](CCS(C)(=O)=O)C(F)(F)F)c4cn3)nc2[C@H]1C (single isomer, unassigned) [Compound 175]",23300 pM
13,"CC[C@@](C)(N)c1cnc(O[C@H](C)CC(C)(C)[S@@](C)(=N)=O)c2cnc(Nc3ccc4c(n3)C(C)(C)[C@@H](C)OC4=O)cc12 (single isomer, unassigned) [Compound 188]",960 pM
14,"C[C@@H]1c2nc(Nc3cc4c(C(C)(C)N)cnc(OC[C@H]5CCS(=O)(=O)C5)c4cn3)ccc2C(=O)OC1(C)C (single isomer, unassigned) [Compound 37]",440 pM
15,"C[C@@H]1[C@H](S(C)(=O)=O)C[C@H]1Oc1ncc(C(C)(C)N)c2cc(Nc3ccc4c(n3)[C@@H](C)C(C)(C)OC4=O)ncc12 (single isomer, unassigned) [Compound 70]",230 pM
16,"CC[C@@](C)(N)c1cnc(O[C@H]2C[C@@H](S(C)(=O)=O)C2)c2cnc(Nc3ccc4c(n3)[C@H](C)COC4=O)cc12 (single isomer, unassigned) [Compound 9]",920 pM
17,"CC[C@@](C)(N)c1cnc(O[C@H](C)CC(C)(C)[S@@](C)(=N)=O)c2cnc(Nc3ccc4c(n3)C(C)(C)[C@@H](C)OC4=O)cc12 (single isomer, unassigned) [Compound 190]",5100 pM
18,C[C@H](C[C@@H](C)S(C)(=O)=O)Oc1ncc(C(C)(C)N)c2cc(Nc3ccc4c(n3)C3(CC3)C(C)(C)OC4=O)ncc12 [Compound 103],550 pM
